In patent US11820773B2, “Tricyclic compounds” (ALIGOS THERAPEUTICS, INC., priority 2020, dated 2023):
pEC50: −log10 of the molar value.

System: HBV
Test: HBV-DNA antiviral assay using HepG2.117 cells (intracellular HBV DNA by qPCR)
Type: cell-based, genotype D HBV
Conditions: HBV DNA inhibition, 3 days incubation, 2% DMSO
Procedure, shortened: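 HepG2.117 cells (stable genotype D HBV, Tet-off) seeded without doxycycline, treated next day with 9-point 4-fold dilutions in 2% DMSO for 3 days at 37° C. Intracellular HBV DNA quantified by qPCR against a standard curve; viability by CellTiter-Glo ATP. EC50, EC90, CC50 from variable-slope dose-response fits versus DMSO control.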

| SMILES | pEC50 |
| --- | --- |
| CC(C)Cc1cnn2c3c(c(=O)n(-c4ccc(-c5nncn5C)cc4)c12)C[C@@H](C)N(C(=O)c1ccc(Br)c(Cl)c1)C3 [Compound 60a, (11R)-12-(4-bromo-3-chlorobenzoyl)-11-methyl-7-[4-(4-methyl-1,2,4-triazol-3-yl)phenyl]-5-(2-methylpropyl)-2,3,7,12-tetraazatricyclo[7.4.0.0^{2,6}]trideca-1(9),3,5-trien-8-one] | > 7.30 |
| CC(C)Cc1cnn2c3c(c(=O)n(-c4ccc(-c5nncn5C)cc4)c12)C[C@H](C)N(C(=O)c1ccc(Br)c(Cl)c1)C3 [Compound 60b, (11S)-12-(4-bromo-3-chlorobenzoyl)-11-methyl-7-[4-(4-methyl-1,2,4-triazol-3-yl)phenyl]-5-(2-methylpropyl)-2,3,7,12-tetraazatricyclo[7.4.0.0^{2,6}]trideca-1(9),3,5-trien-8-one] | 6.30 to 7.30 |

Same assay, conditions: Hepatitis B virus, 72 h, HBV DNA inhibition, 3 days incubation, 2% DMSO

| SMILES | pEC50 |
| --- | --- |
| Cc1ncnn1-c1ccc(-n2c(=O)c3c(n4ncc(Cc5ccccc5)c24)CN(C(=O)c2ccc(Br)c(C(F)(F)F)c2)CC3)cc1 [Compound 36, 5-benzyl-12-[4-bromo-3-(trifluoromethyl)benzoyl]-7-[4-(5-methyl-1,2,4-triazol-1-yl)phenyl]-2,3,7,12-tetrazatricyclo[7.4.0.0^2,6]trideca-1(9),3,5-trien-8-one] | > 7.30 |
| C#CCc1cnn2c3c(c(=O)n(-c4ccc(C(=O)NC)cc4)c12)CCN(C(=O)c1ccc(Br)c(C(F)(F)F)c1)C3 [Compound 42, 4-[12-[4-bromo-3-(trifluoromethyl)benzoyl]-8-oxo-5-prop-2-ynyl-2,3,7,12-tetrazatricyclo[7.4.0.0^2,6]trideca-1(9),3,5-trien-7-yl]-N-methyl-benzamide] | > 7.30 |
| C[C@@H]1Cc2c(n3ncc(Cc4ccccc4)c3n(-c3ccc(-n4nnnc4C(F)(F)F)cc3)c2=O)CN1C(=O)c1ccc(Br)c(C(F)(F)F)c1 [Compound 87, 5-benzyl-12-[4-bromo-3-(trifluoromethyl)benzoyl]-11-methyl-7-[4-[5-(trifluoromethyl)tetrazol-1-yl]phenyl]-2,3,7,12-tetrazatricyclo[7.4.0.0^2,6]trideca-1(9),3,5-trien-8-one] | 6.30 to 7.30 |
| CC(C)[C@H](N)C(=O)OCN(C)C(=O)c1ccc(-n2c(=O)c3c(n4ncc(CC5CC5)c24)CN(C(=O)c2ccc(Br)c(C(F)(F)F)c2)[C@@H](C)C3)cc1 [Compound 90, [[4-[(11S)-12-[4-bromo-3-(trifluoromethyl)benzoyl]-5-(cyclopropylmethyl)-11-methyl-8-oxo-2,3,7,12-tetrazatricyclo[7.4.0.0^2,6]trideca-1(9),3,5-trien-7-yl]benzoyl]-methylamino]methyl (2S)-2-amino-3-methyl-butanoate] | < 5.30 |
| CC(C)[C@@H](N)C(=O)OCN(C)C(=O)c1ccc(-n2c(=O)c3c(n4ncc(CC5CC5)c24)CN(C(=O)c2ccc(Br)c(C(F)(F)F)c2)[C@H](C)C3)cc1 [Compound 106, [[4-[(11R)-12-[4-bromo-3-(trifluoromethyl)benzoyl]-5-(cyclopropylmethyl)-11-methyl-8-oxo-2,3,7,12-tetrazatricyclo[7.4.0.0^2,6]trideca-1(9),3,5-trien-7-yl]benzoyl]-methyl-amino]methyl (2S)-2-amino-3-methyl-butanoate] | > 7.30 |
